Results from patent US20120316161A1, “NOVEL ANTIVIRAL COMPOUNDS” (KATHOLIEKE UNIVERSITEIT LEUVEN, priority 2009, published 2012).
Read-outs that look alike come from different tables or passages of the source.

Legend:
[1] = Cytotoxicity in mock-infected MT-4 cells (MTT); format: cell-based; conditions: human, mock-infected MT-4 cells
Procedure: A rapid and automated assay procedure was used for the in vitro evaluation of anti-HIV agents. An HTLV-1 transformed T4-cell line MT-4, which was previously shown to be highly susceptible to and permissive for HIV infection, served as the target cell line. Inhibition of the HIV-induced cytopathogenic effect was used as the end point. The viability of both HIV-and mock-infected cells was assessed spectrophotometrically via in situ reduction of 3-(4,5-dimethylthiazol-2-yl)-2,5-diphenyltetrazolium bromide (MTT). […] The percent protection achieved by the compound in HIV-infected cells was calculated by the following formula: […]
whereby (ODT)HIV is the optical density measured with a given concentration of the test compound in HIV-infected cells; (ODC)HIV is the optical density measured for the control untreated HIV-infected cells; (ODC)MOCK is the optical density measured for the control untreated mock-infected cells; all optical density values were determined at 540 nm. […] The ratio of CC50 to EC50 was defined as the selectivity index (SI).

[2] = molecular target: T1, LEDGF-integrase interaction (His6-tagged HIV-1 integrase, flag-LEDGF/p75) (Human immunodeficiency virus type 1 group M subtype B, UniProt P04585); test: AlphaScreen assay of LEDGF-integrase interaction inhibition; format: binding; conditions: compound at 100 μM
T1 construct: His6-tagged HIV-1 integrase; made in house
Procedure: The AlphaScreen assay was performed according to the manufacturer's protocol (Perkin Elmer, Benelux). Reactions were performed in 25 μl final volume in 384-well Optiwell™ microtiter plates (Perkin Elmer). The reaction buffer contained 25 mM Tris-HCl (pH 7.4), 150 mM NaCl, 1 mM MgCl2, 0.01% (v/v) Tween-20 and 0.1% (w/v) bovine serum albumin. His6-tagged integrase (300 nM final concentration) was incubated with the compounds for 30 min at 4° C. The compounds were added at varying concentrations spanning a wide range from 0.1 up to 100 μM. Afterwards 100 nM flag-LEDGF/p75 was added and incubation was prolonged for an additional hour at 4° C. Subsequently 5 μl of Ni-chelate—coated acceptor beads and 5 μl anti-flag donor beads were added to a final concentration of 20 μg/ml of both beads. Proteins and beads were incubated for 1 h at 30° C. in order to allow association to occur. Exposure of the reaction to direct light was omitted as much as possible and the emission of light from the acceptor beads was measured in the EnVision plate reader (Perkin Elmer, Benelux) and analyzed using the EnVision manager software. IN/DNA binding was analyzed in a similar setting using His6-tagged integrase (1 μM final concentration) and an oligodeoxynucleotide mimicking the IN ELISA oligonucleotide substrate (30 nM final concentration). Counterscreens with JPO2 or PogZ, respectively, were essentially performed as described previously. Expression and purification of recombinant proteins: His6-tagged HIV-1 integrase, 3xflag-tagged LEDGF/p75, MBP-JPO2 and MBP-PogZ were purified for AlphaScreen applications as described previously.

HIV = test: microbe, parasite or virus in culture; format: cell-based; conditions: Human immunodeficiency virus 1, MT4
Procedure: A rapid and automated assay procedure was used for the in vitro evaluation of anti-HIV agents. An HTLV-1 transformed T4-cell line MT-4, which was previously shown to be highly susceptible to and permissive for HIV infection, served as the target cell line. Inhibition of the HIV-induced cytopathogenic effect was used as the end point. The viability of both HIV-and mock-infected cells was assessed spectrophotometrically via in situ reduction of 3-(4,5-dimethylthiazol-2-yl)-2,5-diphenyltetrazolium bromide (MTT). The 50% cytotoxic concentration (CC50 in μg/ml) was defined as the concentration of compound that reduced the absorbance of the mock-infected control sample by 50%. The percent protection achieved by the compound in HIV-infected cells was calculated by the following formula: […]
whereby (ODT)HIV is the optical density measured with a given concentration of the test compound in HIV-infected cells; (ODC)HIV is the optical density measured for the control untreated HIV-infected cells; (ODC)MOCK is the optical density measured for the control untreated mock-infected cells; all optical density values were determined at 540 nm. The dose achieving 50% protection according to the above formula was defined as the 50% inhibitory concentration (EC50 in μg/ml or μM). The ratio of CC50 to EC50 was defined as the selectivity index (SI). […] Examples of inhibition of cell proliferation by particular compounds of the invention can be found by looking at the respective CC50 values in the MT-4 cell line. Cells: MT-4 cells (Miyoshi et al., 1982) were grown and maintained in RPMI 1640medium supplemented with 10% heat-inactivated fetal calf serum, 2 mM 1-glutamine, 0.1% sodium bicarbonate, and 20æg of gentamicin per ml.
Viruses: The HIV-1 (NL4.3) strain (Adachi et al., 1986) is a molecular clone obtained from the National Institutes of Health (Bethesda, Md.). The HIV-2 (ROD) (Barr, -Sinoussi et al., 1983) stock was obtained from culture supernatant of HIV-2 infected cell lines.

[3] = 50% protection of HIV-infected MT-4 cells, read-out: EC50

Row | SMILES | CC50 [1] [µM] | Alpha screen % (100 μM) [2] [%] | EC50 (HIV; [3]) [µM] | EC50 (HIV) [µM]
1 | CCCC(C(=O)O)c1c(C)nc2ccnn2c1-c1ccc(C)cc1 (centres unmarked) [CPD-57, 2-(5-methyl-7-p-tolylpyrazolo[1,5-a]pyrimidin-6-yl)pentanoic acid] | > 250 | 84 | 192 | –
2 | CCCC(C(=O)O)c1c(C)nc2cc(C(C)(C)C)nn2c1-c1ccccc1 (centres unmarked) [CPD-58, 2-(2-tert-butyl-5-methyl-7-phenylpyrazolo[1,5-a]pyrimidin-6-yl)pentanoic acid] | 121 | 77 | 27.3 | –
3 | CCCC(C(=O)O)c1c(C)nc2cc(C(C)(C)C)nn2c1-c1ccc(C)cc1 (centres unmarked) [CPD-59, 2-(2-tert-butyl-5-methyl-7-p-tolylpyrazolo[1,5-a]pyrimidin-6-yl)pentanoic acid] | > 250 | 92 | 14.3 | –
4 | CCCC(C(=O)O)c1c(C)nc2c(Br)c(C(C)(C)C)nn2c1-c1ccc(C)cc1 (centres unmarked) [CPD-60, 2-(3-bromo-2-tert-butyl-5-methyl-7-p-tolylpyrazolo[1,5-a]pyrimidin-6-yl)pentanoic acid] | 56.3 | 92 | 2.39 | –
5 | CCCC(C(=O)O)c1c(C)nc2cc(-c3ccccc3)nn2c1-c1ccc(C)cc1 (centres unmarked) [CPD-61, 2-(5-methyl-2-phenyl-7-p-tolylpyrazolo[1,5-a]pyrimidin-6-yl)pentanoic acid] | 104 | 94 | 30.2 | –
6 | CCCC(C(=O)O)c1c(C)nc2cc(C(C)(C)C)nn2c1-c1ccc2cc[nH]c2c1 (centres unmarked) [CPD-65, 2-(2-tert-butyl-7-(1H-indol-6-yl)-5-methylpyrazolo[1,5-a]pyrimidin-6-yl)pentanoic acid] | 46.5 | 30 | – | 5.69
7 | CCCC(C(=O)O)c1c(C)nc2cc(C(C)(C)C)nn2c1-c1ccc2occc2c1 (centres unmarked) [CPD-66, 2-(7-(benzofuran-5-yl)-2-tert-butyl-5-methylpyrazolo[1,5-a]pyrimidin-6-yl)pentanoic acid] | 99 | 92 | 10.5 | –
8 | CCCC(C(=O)O)c1c(C)nc2cc(C(C)(C)C)nn2c1-c1ccc2sccc2c1 (centres unmarked) [CPD-67, 2-(7-(benzo[b]thiophen-5-yl)-2-tert-butyl-5-methylpyrazolo[1,5-a]pyrimidin-6-yl)pentanoic acid] | 70 | 93 | 2.94 | –
9 | CCCC(C(=O)O)c1c(C)nc2cc(C(C)(C)C)nn2c1-c1ccc2c(c1)CCO2 (centres unmarked) [CPD-68, 2-(2-tert-butyl-7-(2,3-dihydrobenzofuran-5-yl)-5-methylpyrazolo[1,5-a]pyrimidin-6-yl)pentanoic acid] | 101 | 93 | 6.42 | –
10 | CCCC(C(=O)O)c1c(C)nc2cc(C(C)(C)C)nn2c1-c1ccc(Cl)cc1 (centres unmarked) [CPD-69, 2-(2-tert-butyl-7-(4-chlorophenyl)-5-methylpyrazolo[1,5-a]pyrimidin-6-yl)pentanoic acid] | 40.3 | 93 | – | 1.61
11 | CCCC(C(=O)O)c1c(C)nc2cc(C(C)(C)C)nn2c1-c1ccc(C)c(C)c1 (centres unmarked) [CPD-70, 2-(2-tert-butyl-7-(3,4-dimethylphenyl)-5-methylpyrazolo[1,5-a]pyrimidin-6-yl)pentanoic acid] | > 125 | 93 | 72.1 | –
12 | CCCC(C(=O)O)c1c(C)nc2cc(C(C)(C)C)nn2c1-c1ccc(CC)cc1 (centres unmarked) [CPD-71, 2-(2-tert-butyl-7-(4-ethylphenyl)-5-methylpyrazolo[1,5-a]pyrimidin-6-yl)pentanoic acid] | 73 | 74 | 2.8 | –
13 | CCCC(C(=O)O)c1c(C)nc2cc(C(C)(C)C)nn2c1-c1ccc2c(c1)OCCCO2 (centres unmarked) [CPD-72, 2-(2-tert-butyl-7-(3,4-dihydro-2H-benzo[b][1,4]dioxepin-7-yl)-5-methylpyrazolo[1,5-a]pyrimidin-6-yl)pentanoic acid] | > 125 | 93 | 22.6 | –
14 | CCCc1cc2nc(C)c(C(CCC)C(=O)O)c(-c3ccc(C)cc3)n2n1 (centres unmarked) [CPD-77, 2-(5-methyl-2-propyl-7-p-tolylpyrazolo[1,5-a]pyrimidin-6-yl)pentanoic acid] | 203 | 83 | 28.1 | –
15 | CCCC(C(=O)O)c1c(C)nc2cc(-c3ccco3)nn2c1-c1ccc(C)cc1 (centres unmarked) [CPD-78, 2-(2-(furan-2-yl)-5-methyl-7-p-tolylpyrazolo[1,5-a]pyrimidin-6-yl)pentanoic acid] | 127 | 83 | 21.2 | –
16 | CCCC(C(=O)O)c1c(C)nc2cc(C(C)(C)C)nn2c1-c1ccc(Cl)cc1F (centres unmarked) [CPD-79, 2-(2-tert-butyl-7-(4-chloro-2-fluorophenyl)-5-methylpyrazolo[1,5-a]pyrimidin-6-yl)pentanoic acid] | 76 | 75 | 1.89 | –
17 | CCCC(C(=O)O)c1c(C)nc2cc(C(C)(C)C)nn2c1-c1ccc(C)cc1F (centres unmarked) [CPD-80, 2-(2-tert-butyl-7-(2-fluoro-4-methylphenyl)-5-methylpyrazolo[1,5-a]pyrimidin-6-yl)pentanoic acid] | 192 | 75 | 4.08 | –
18 | Cc1ccc(-c2c(C(CCCC(F)(F)F)C(=O)O)c(C)nc3cc(C(C)(C)C)nn23)cc1 (centres unmarked) [CPD-81, 2-(2-tert-butyl-7-p-tolyl-5-methylpyrazolo[1,5-a]pyrimidin-6-yl)-6,6,6-trifluorohexanoic acid] | 56 | 65 | 16.4 | –
19 | CCCC(C(=O)O)c1c(C)nc2cc(C(C)(C)C)nn2c1-c1ccc2c(c1)CCCO2 (centres unmarked) [CPD-85] | 125 | 76 | 2.54 | –
20 | CCC(C)C(C(=O)O)c1c(C)nc2cc(C(C)(C)C)nn2c1-c1ccc(C)cc1 (centres unmarked) [CPD-86, 2-(2-tert-butyl-7-p-tolyl-5-methylpyrazolo[1,5-a]pyrimidin-6-yl)-3-methylpentanoic acid] | 77 | – | – | –
21 | CCCC(C(=O)O)c1c(C)nc2c(Cl)c(C(C)(C)C)nn2c1-c1ccc(C)cc1 (centres unmarked) [CPD-87, 2-(2-tert-butyl-3-chloro-7-p-tolyl-5-methylpyrazolo[1,5-a]pyrimidin-6-yl)pentanoic acid] | 38.3 | 67 | 2.33 | –
22 | CCCC(C(=O)O)c1c(C)nc2c(nc(C)n2C)c1-c1ccc(C)cc1 (centres unmarked) [CPD-105, 2-(2,3,5-Trimethyl-7-p-tolyl-3H-imidazo[4,5-b]pyridin-6-yl)pentanoic acid] | 235 | – | 23.2 | –
23 | CCCC(C(=O)O)c1c(C)nc2nc(C(C)C)nn2c1-c1ccc(C)cc1 (centres unmarked) [CPD-121, 2-(2-isopropyl-5-methyl-7-p-tolyl-[1,2,4]-triazolo[1,5-a]pyrimidin-6-yl)pentanoic acid] | > 250 | – | 124 | –
